Source: ChEMBL document CHEMBL1909046, “DrugMatrix in vitro pharmacology data”

Columns and labels:
[1] = biological target: T1, Receptor-type tyrosine-protein phosphatase C (Homo sapiens, UniProt P08575); set-up: species or system Escherichia coli;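 note: inhibition of CD45 enzyme activity measured using DiFMUP as substrate; in other assays of this panel Not Active means under 50% inhibition at 10 µM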
T1 sequence (P08575 whole entry): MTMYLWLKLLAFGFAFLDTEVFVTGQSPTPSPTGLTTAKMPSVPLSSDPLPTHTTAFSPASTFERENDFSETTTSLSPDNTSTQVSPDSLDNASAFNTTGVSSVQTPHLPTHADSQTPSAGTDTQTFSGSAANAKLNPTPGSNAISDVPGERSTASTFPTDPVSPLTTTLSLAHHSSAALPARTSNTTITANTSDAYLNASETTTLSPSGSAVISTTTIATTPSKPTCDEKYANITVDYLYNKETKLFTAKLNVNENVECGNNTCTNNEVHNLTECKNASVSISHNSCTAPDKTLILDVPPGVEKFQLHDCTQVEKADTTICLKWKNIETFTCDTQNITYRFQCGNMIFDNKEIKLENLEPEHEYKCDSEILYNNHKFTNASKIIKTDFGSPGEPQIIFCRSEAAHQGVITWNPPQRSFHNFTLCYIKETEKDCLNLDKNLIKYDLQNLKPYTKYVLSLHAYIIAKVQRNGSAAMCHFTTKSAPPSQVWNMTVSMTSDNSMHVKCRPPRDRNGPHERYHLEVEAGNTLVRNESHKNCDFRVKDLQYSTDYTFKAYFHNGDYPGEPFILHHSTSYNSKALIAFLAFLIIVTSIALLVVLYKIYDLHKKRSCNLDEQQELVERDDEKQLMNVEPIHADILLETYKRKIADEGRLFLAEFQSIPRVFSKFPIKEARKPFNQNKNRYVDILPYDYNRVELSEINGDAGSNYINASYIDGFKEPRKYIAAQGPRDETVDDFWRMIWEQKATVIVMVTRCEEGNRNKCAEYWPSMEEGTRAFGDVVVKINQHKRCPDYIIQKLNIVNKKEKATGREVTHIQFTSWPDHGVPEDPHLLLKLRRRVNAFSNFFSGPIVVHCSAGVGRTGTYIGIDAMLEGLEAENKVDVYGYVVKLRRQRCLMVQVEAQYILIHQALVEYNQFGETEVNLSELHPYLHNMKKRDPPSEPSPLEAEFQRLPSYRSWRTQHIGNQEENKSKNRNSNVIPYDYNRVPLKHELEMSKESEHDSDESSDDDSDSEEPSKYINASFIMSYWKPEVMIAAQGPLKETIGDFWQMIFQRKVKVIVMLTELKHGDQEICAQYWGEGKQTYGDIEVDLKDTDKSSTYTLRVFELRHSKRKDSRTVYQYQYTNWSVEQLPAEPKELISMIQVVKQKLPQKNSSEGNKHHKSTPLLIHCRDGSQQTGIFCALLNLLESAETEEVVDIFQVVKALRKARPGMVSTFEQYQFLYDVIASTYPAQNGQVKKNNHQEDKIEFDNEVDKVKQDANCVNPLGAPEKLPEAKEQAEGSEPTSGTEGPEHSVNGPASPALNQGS

Melanocortin receptor 4 = Melanocortin receptor 4 (Homo sapiens, UniProt P32245); format: cell membranes, Membrane; details: hek293; note: in other assays of this panel Not Active means under 50% inhibition at 10 µM
Melanocortin receptor 4, sequence (P32245 whole entry): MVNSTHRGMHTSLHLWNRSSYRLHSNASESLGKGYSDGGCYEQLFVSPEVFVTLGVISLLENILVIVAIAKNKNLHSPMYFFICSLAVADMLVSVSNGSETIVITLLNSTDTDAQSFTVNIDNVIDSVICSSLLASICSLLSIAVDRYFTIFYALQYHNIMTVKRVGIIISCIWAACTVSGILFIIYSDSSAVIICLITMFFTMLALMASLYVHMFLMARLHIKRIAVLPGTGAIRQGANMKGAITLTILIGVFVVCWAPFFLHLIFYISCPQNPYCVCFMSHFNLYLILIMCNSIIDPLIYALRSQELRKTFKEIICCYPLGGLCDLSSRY

[2] = DRUGMATRIX: Phorbol Ester radioligand binding (ligand: [3H] PDBu); format: cell membranes, Mus musculus, ICR, Brain, Membrane; details: Not Active = under 50% inhibition at 10 µM
[3] = biological target: T2, Alpha-1A adrenergic receptor (Rattus norvegicus, UniProt P43140); experiment: DRUGMATRIX: Alpha-1A adrenergic receptor radioligand binding (ligand: prazosin); format: cell membranes, Wistar, Submaxillary gland, Membrane; details: Not Active = under 50% inhibition at 10 µM; for Ki: read-out: Ki
T2 sequence (P43140 whole entry): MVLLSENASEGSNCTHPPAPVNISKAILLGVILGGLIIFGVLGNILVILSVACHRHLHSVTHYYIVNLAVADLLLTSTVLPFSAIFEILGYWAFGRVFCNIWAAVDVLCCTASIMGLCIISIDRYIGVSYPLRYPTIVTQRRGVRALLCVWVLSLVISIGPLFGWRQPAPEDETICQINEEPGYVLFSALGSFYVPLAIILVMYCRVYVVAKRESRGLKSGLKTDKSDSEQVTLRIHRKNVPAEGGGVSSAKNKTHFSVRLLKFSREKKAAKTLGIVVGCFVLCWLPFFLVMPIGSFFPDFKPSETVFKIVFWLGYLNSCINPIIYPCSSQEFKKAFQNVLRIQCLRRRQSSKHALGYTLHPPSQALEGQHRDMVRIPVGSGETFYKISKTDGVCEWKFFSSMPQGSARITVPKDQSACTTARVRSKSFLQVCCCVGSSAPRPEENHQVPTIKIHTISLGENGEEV

[4] = biological target: Sodium-dependent dopamine transporter (Homo sapiens, UniProt Q01959); experiment: DRUGMATRIX: Dopamine Transporter radioligand binding (ligand: [125I] RTI-55); format: cell membranes, CHO-K1, Membrane; details: Not Active = under 50% inhibition at 10 µM
Sodium-dependent dopamine transporter, sequence (Q01959 whole entry): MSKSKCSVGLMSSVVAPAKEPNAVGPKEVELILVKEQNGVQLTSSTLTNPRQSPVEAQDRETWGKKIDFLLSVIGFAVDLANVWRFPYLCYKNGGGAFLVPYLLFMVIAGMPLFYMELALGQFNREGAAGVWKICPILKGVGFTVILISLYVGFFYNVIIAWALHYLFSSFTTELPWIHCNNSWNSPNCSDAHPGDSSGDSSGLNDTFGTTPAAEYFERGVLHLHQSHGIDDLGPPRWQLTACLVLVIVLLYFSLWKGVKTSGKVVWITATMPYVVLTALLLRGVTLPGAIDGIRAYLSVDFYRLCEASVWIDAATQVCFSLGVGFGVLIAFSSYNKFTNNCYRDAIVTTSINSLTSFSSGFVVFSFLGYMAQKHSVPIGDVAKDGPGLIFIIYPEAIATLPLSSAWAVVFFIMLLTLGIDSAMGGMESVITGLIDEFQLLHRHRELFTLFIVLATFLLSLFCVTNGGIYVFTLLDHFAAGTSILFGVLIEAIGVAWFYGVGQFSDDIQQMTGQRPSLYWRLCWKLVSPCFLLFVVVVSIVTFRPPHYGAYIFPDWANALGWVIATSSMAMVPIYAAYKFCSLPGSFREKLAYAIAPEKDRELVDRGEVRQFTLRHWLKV

Thromboxane-A synthase = biological target: T3, Thromboxane-A synthase (Homo sapiens, UniProt P24557); experiment: biochemical; format: tissue-based, Platelet;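 note: enzyme inhibition assay with PGH2 supplied as substrate; in other assays of this panel Not Active means under 50% inhibition at 10 µM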
T3 sequence (P24557 whole entry): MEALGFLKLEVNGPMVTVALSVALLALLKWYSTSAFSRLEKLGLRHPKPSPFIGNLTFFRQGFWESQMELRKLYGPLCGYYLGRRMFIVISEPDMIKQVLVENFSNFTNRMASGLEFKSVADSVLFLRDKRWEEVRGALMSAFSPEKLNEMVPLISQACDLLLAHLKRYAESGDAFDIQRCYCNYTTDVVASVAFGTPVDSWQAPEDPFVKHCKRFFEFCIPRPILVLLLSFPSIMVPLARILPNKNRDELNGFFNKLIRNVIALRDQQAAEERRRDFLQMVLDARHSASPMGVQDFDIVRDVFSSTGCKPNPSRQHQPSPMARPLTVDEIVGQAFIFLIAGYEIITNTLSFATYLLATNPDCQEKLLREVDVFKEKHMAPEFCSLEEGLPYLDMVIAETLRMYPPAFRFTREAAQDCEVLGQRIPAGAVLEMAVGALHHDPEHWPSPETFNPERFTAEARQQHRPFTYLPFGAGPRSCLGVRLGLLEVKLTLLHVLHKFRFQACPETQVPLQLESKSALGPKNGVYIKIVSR

Compound | IC50 [1] | IC50 (Melanocortin receptor 4) | IC50 [2] | Ki [2] | IC50 [3] | IC50 ([4]; cho-k1) | IC50 (Thromboxane-A synthase; platelet) | IC50 (Thromboxane-A synthase; read-out: IC50) [nM] | IC50 ([3]; read-out: IC50) [nM] | Ki [3] [nM] | IC50 ([4]; read-out: IC50) [nM] | Ki ([4]; read-out: Ki) [nM]
CC(N)C12CC3CC(CC(C3)C1)C2 (configuration not stated) [RIMANTADINE] | Not Active | Not Active | Not Active | Not Active | Not Active | Not Active | Not Active | – | – | – | – | –
CS(=O)(=O)c1ccc(C2=C(c3ccccc3)C(=O)OC2)cc1 [ROFECOXIB] | Not Active | Not Active | Not Active | Not Active | Not Active | Not Active | Not Active | – | – | – | – | –
CCOc1cc(N)c(Cl)cc1C(=O)NCC1CN(Cc2ccc(F)cc2)CCO1 (configuration not stated) [MOSAPRIDE] | Not Active | Not Active | Not Active | Not Active | Not Active | Not Active | Not Active | – | – | – | – | –
Cc1ccnc(NS(=O)(=O)c2ccc(N)cc2)n1 [SULFAMERAZINE] | Not Active | Not Active | Not Active | Not Active | Not Active | Not Active | Not Active | – | – | – | – | –
OC[C@@H](O)[C@@H](O)[C@H](O)[C@H](O)CO [MANNITOL] | Not Active | Not Active | Not Active | Not Active | Not Active | Not Active | Not Active | – | – | – | – | –
Oc1ccc(/C=C/c2cc(O)cc(O)c2)cc1 [RESVERATROL] | Not Active | Not Active | Not Active | Not Active | Not Active | Not Active | Not Active | – | – | – | – | –
CC1=C(/C=C/C(C)=C/C=C/C(C)=C/C(=O)O)C(C)(C)CCC1 [TRETINOIN] | Not Active | Not Active | Not Active | Not Active | Not Active | Not Active | Not Active | – | – | – | – | –
C=CCc1ccc2c(c1)OCO2 [SAFROLE] | Not Active | Not Active | Not Active | Not Active | Not Active | Not Active | Not Active | – | – | – | – | –
CCN(CC)N=O [N-NITROSODIETHYLAMINE] | Not Active | Not Active | Not Active | Not Active | Not Active | Not Active | Not Active | – | – | – | – | –
CCN1CCCC1CNC(=O)c1cc(S(N)(=O)=O)ccc1OC (configuration not stated) [SULPIRIDE] | Not Active | Not Active | Not Active | Not Active | Not Active | Not Active | Not Active | – | – | – | – | –
O=C1CC[C@@]2(O)[C@H]3Cc4ccc(O)c5c4[C@@]2(CCN3CC2CC2)[C@H]1O5 [NALTREXONE] | Not Active | Not Active | Not Active | Not Active | Not Active | Not Active | Not Active | – | – | – | – | –
C[N+]1(C)[C@@H]2C[C@@H](OC(=O)[C@H](CO)c3ccccc3)C[C@H]1[C@@H]1O[C@@H]12.[Br-] [METHSCOPOLAMINE BROMIDE] | Not Active | Not Active | Not Active | Not Active | Not Active | Not Active | Not Active | – | – | – | – | –
CCN(CC)CCNC(=O)c1cc(Cl)c(N)cc1OC [METOCLOPRAMIDE] | Not Active | Not Active | Not Active | Not Active | Not Active | Not Active | Not Active | – | – | – | – | –
O=C(OC[C@H]1O[C@@H](OC(=O)c2cc(O)c(O)c(OC(=O)c3cc(O)c(O)c(O)c3)c2)[C@H](OC(=O)c2cc(O)c(O)c(OC(=O)c3cc(O)c(O)c(O)c3)c2)[C@@H](OC(=O)c2cc(O)c(O)c(OC(=O)c3cc(O)c(O)c(O)c3)c2)[C@@H]1OC(=O)c1cc(O)c(O)c(OC(=O)c2cc(O)c(O)c(O)c2)c1)c1cc(O)c(O)c(OC(=O)c2cc(O)c(O)c(O)c2)c1 [TANNIC ACID] | Not Active | Not Active | Not Active | Not Active | Not Active | Not Active | – | 325 | – | – | – | –
CN1C(=O)OC(C)(C)C1=O [TRIMETHADIONE] | Not Active | Not Active | Not Active | Not Active | Not Active | Not Active | Not Active | – | – | – | – | –
Cc1cn([C@H]2C=C[C@@H](CO)O2)c(=O)[nH]c1=O [STAVUDINE] | Not Active | Not Active | Not Active | Not Active | Not Active | Not Active | Not Active | – | – | – | – | –
CN1C[C@H](CNC(=O)OCc2ccccc2)C[C@@H]2c3cccc4c3c(cn4C)C[C@H]21 [METERGOLINE] | Not Active | Not Active | Not Active | Not Active | – | – | Not Active | – | 95 | 38 | – | –
CCN(CC)C(=S)SSC(=S)N(CC)CC | Not Active | Not Active | Not Active | Not Active | Not Active | – | Not Active | – | – | – | 4640 | 3680
Cc1cc2c(s1)Nc1ccccc1N=C2N1CCN(C)CC1 [OLANZAPINE] | Not Active | Not Active | – | – | – | Not Active | Not Active | – | – | – | – | –
CC(C)(C)NC[C@H](O)COc1cccc2c1CCCC2=O [LEVOBUNOLOL] | Not Active | Not Active | Not Active | Not Active | Not Active | Not Active | Not Active | – | – | – | – | –
Nc1nc(N)c2nc(-c3ccccc3)c(N)nc2n1 | Not Active | Not Active | Not Active | Not Active | Not Active | Not Active | Not Active | – | – | – | – | –
Cc1ccc(S(=O)(=O)NC(=O)NN2CCCCCC2)cc1 [TOLAZAMIDE] | Not Active | Not Active | Not Active | Not Active | Not Active | Not Active | Not Active | – | – | – | – | –
CN(C)CCC=C1c2ccccc2COc2ccccc21 [DOXEPIN] | Not Active | Not Active | – | – | – | – | Not Active | – | 107 | 43 | – | –
CNCCCC12CCC(c3ccccc31)c1ccccc12 [MAPROTILINE] | Not Active | Not Active | – | – | – | – | Not Active | – | 567 | 230 | – | –
